{"source": "patent US20240109925A1", "about": "“Enhanced Anti-Proliferative and Antitumor Immune Effects of Mitochondria-Targeted Hydroxyurea” (The Medical College of Wisconsin, Inc., priority 2021, published 2024)", "assay_type_in_all_cases": "cell-based", "key": {"[1]": {"test_system": "HCT116 human colon cancer cells", "assay": "Cell proliferation (cell confluence), IncuCyte Live-Cell Analysis system", "conditions": "for IC50: Homo sapiens, HCT-116, at ~90% confluence of control; for inhibition of proliferation of HCT116 cells / IC50: HCT116; for Cell Confluence (%): when control cells reached ~90% confluence, n = 4", "text": "FIG. 1. Effects of HU and Mito-HUs on proliferation of HCT116 human colon cancer cells (A) Effects of HU and Mito-HUs on the proliferation of HCT116 cells were monitored in the IncuCyte Live-Cell Analysis system. The IncuCyte Analyzer provides real-time updates on cell confluence, based on segmentation of high definition-phase contrast images. Representative cell images were shown as segmentation mask illustrated in brown when control cells reached 90% confluence (vertical solid black line). (B) The IC50 values were determined at the point at which control cells reached ˜90% confluence (vertical solid black line). Relative cell confluence (control is taken as 100%) is plotted against concentration. Dashed lines represent the fitting curves used to determine the IC50 values as indicated. Data shown are the means & SD.\n(§1) The following cell lines were obtained from the American Type Culture Collection (Manassas, VA), where they were regularly authenticated: HCT116 (ATCC Cat #CRL-247, human colon cancer cells) and MiaPaCa-2 (ATCC Cat #CRL-1420, human pancreatic cancer cells). All cells were cultured in a humidified incubator at 37° C. and 5% carbon dioxide. HCT116 cells were maintained in RPMI 1640 medium (Thermo Fisher Scientific, Cat #11875), supplemented with 10% fetal bovine serum. MiaPaCa-2 cells were maintained in Dulbecco's Modified Eagle Medium (Thermo Fisher Scientific, Waltham, MA; Cat #11965) supplemented with 10% fetal bovine serum. All cells were stored in liquid nitrogen and used within 20 passages after thawing.\n(§2) The IncuCyte Live-Cell Analysis system (Essen Bioscience Inc., Ann Arbor, MI) was used to monitor cell proliferation (Cheng et al., 2013, 2016; Boyle et al., 2018). As shown in previous publications (Cheng et al., 2013, 2016), this imaging system is probe-free and noninvasive, and enables continuous monitoring of cell confluence over several days. The increase in the percentage of cell confluence was used as a surrogate marker of cell proliferation. In a 96-well plate, cells were plated at 1,000 cells per well in triplicates and left to adhere overnight. Cells were then treated with HU and Mito-HUs, and the cell confluency was recorded over several days in the IncuCyte Live-Cell Analysis system."}, "mitochondrial complex I": {"biological_target": "mitochondrial complex I (Homo sapiens, UniProt O75251+O75306+P03886)", "assay": "Complex I-dependent oxygen consumption (OCR), Seahorse XF-96, HCT116 cells", "conditions": "HCT116, 24 hr", "description": "(§3) FIG. 2. Effects of HU and Mito-HUs on the oxygen consumption by mitochondrial complexes I and III (A) Dose-dependent effects of HU, Mito10-HU, Mito12-HU, Mito14-HU, Mito16-HU, and Mito20-HU on complex I- and complex III-dependent oxygen consumption were measured in HCT116 cells. HCT116 cells were treated with HU or Mito-HUs as indicated for 24 hr. Mitochondrial complex I activity (left) and complex III activity (right) were monitored by a Seahorse XF-96 analyzer. Either rotenone (complex I inhibitor) or antimycin A (complex III inhibitor) was acutely added and OCR assayed immediately. (B) The mitochondrial complex I (left) and III (right) dependent oxygen consumption (calculated as rotenone or antimycin A inhibitable OCR) are plotted against concentration of HU and Mito-HUs. Dashed lines represent the fitting curves used for determination of the IC50 values. Data shown are the means G SD.\n(§4) Mitochondrial oxygen consumption was measured using the Seahorse XF-96 Extracellular Flux Analyzer (Agilent, North Billerica, MA) (Cheng et al., 2013, 2016; Boyle et al., 2018; Weinberg and Chandel, 2015). After cells were treated with HU or Mito-HUs for 24 hr, the OCR-based assessment of mitochondrial complex activities was carried out on acutely permeabilized cells in the presence of different mitochondrial substrates, i.e., pyruvate/malate for complex I and duroquinol for complex III (Cheng et al., 2016, 2019; Salabei et al., 2014; Wheaton et al., 2014). Rotenone, malonate, and antimycin A (Sigma-Aldrich, St. Louis, MO) were used as specific inhibitors of mitochondrial complexes I, II, and III, respectively. Briefly, cells that were intact after treatments were immediately permeabilized using the Seahorse XF Plasma Membrane Permeabilizer (Agilent). The mitochondrial complex I-induced OCR was assayed in mannitol and sucrose buffer (Salabei et al., 2014) containing 10 mM pyruvate and 1.5 mM malate (substrates for complex I) and 10 mM malonate (which inhibits complex II activities). The mitochondrial complex III-driven OCR was assayed in a mannitol and sucrose buffer containing 0.5 mM duroquinol (substrate for complex III) as well as […] and 10 mM malonate (which inhibit both complex I and II activities). The IC50 values were determined as previously reported (Cheng et al., 2019)."}, "[2]": {"biological_target": "T1, mitochondrial complex III (Homo sapiens, UniProt P00156+P47985)", "T1 construct": "other: mean ± SD; HCT116, 24 hr treatment; Complex III activity (OCR, % of control); other: 0.1 μM, 24 hr, HCT116; n = 4; other: 0.5 μM, 24 hr, HCT116; other: 0.75 μM, 24 hr, HCT116; other: 1 μM, 24 hr, HCT116; Compl", "assay": "Complex III-dependent oxygen consumption (OCR), Seahorse XF-96, HCT116 cells", "conditions": "HCT116, 24 hr", "description": "as §3, §4"}, "[3]": {"test_system": "HCT116 human colon cancer cells", "assay": "Cell proliferation (cell confluence), IncuCyte Live-Cell Analysis system"}, "[4]": {"test_system": "MiaPaCa-2 human pancreatic cancer cells", "assay": "Cell proliferation, IncuCyte Live-Cell Analysis system", "text": "FIG. 7. Effects of HU and Mito10-HU on proliferation of MiaPaCa-2 human pancreatic cancer cells; MiaPaCa-2 cells treated with HU or Mito10-HU were monitored in the IncuCyte Live-Cell Analysis system. Cell proliferation was monitored in real-time with the continuous presence of indicated treatments until the end of each experiment. Data shown are the means±SD.\nas §1, §2"}, "[5]": {"conditions": "read-out: IC50 proliferation of HCT116 cells"}}, "note": "“Also recorded” adds a separate entry of the source. Like-named read-outs stand apart in the source and are kept apart here."}
{"smiles": "O=C(NO)NC(=O)NCCCCCCCCCC[P+](c1ccccc1)(c1ccccc1)c1ccccc1.O=C([O-])C(F)(F)F", "note": "[Mito10-HUNHTPP^+, 10-[(hydroxycarbamoyl)carbamoylamino]-decyltriphenylphosphonium trifluoroacetate]", "values": [{"measurement": "inhibition of proliferation of HCT116 cells", "setting": "[1]", "value": "inhibited HCT116 cell proliferation"}]}
{"smiles": "Cc1ccc([P+](CCCCCCCCCCONC(N)=O)(c2ccc(C)cc2)c2ccc(C)cc2)cc1.O=C([O-])C(F)(F)F", "note": "[Mito10-HUtriMe, 10-[(carbamoylamino)oxy]-decyl-tris-p-tolylphosphonium trifluoroacetate]", "values": [{"measurement": "IC50", "setting": "[1]; [5]", "value": 3.7, "unit": "µM"}, {"measurement": "effect on complex I-induced oxygen consumption", "setting": "mitochondrial complex I", "value": "more potently than Mito10-HU"}, {"measurement": "effect on complex III-induced oxygen consumption", "setting": "[2]", "value": "more potently than Mito10-HU"}]}
{"smiles": "Cc1[nH]nc(C(F)(F)F)c1Cc1sc2c(c1C(=O)N1C[C@](C)(O)CO1)c(=O)n(C)c(=O)n2C(C)C", "note": "[AZD-3965, reference compound]", "values": [{"measurement": "antiproliferative effect, each alone (AZD-3965 experiment)", "setting": "[3]; Mito10-HU (5 μM) or AZD-3965 (100 μM) independently, HCT-116", "value": "negligible antiproliferative effects"}]}
{"smiles": "CCOC(=O)Oc1c(OC)cc(C(=O)O[C@@H]2C[C@@H]3CN4CCc5c([nH]c6cc(OC)ccc56)[C@H]4C[C@@H]3[C@H](C(=O)OC)[C@H]2OC)cc1OC", "note": "[syrosingopine, reference compound]", "values": [{"measurement": "effect on cell proliferation, each alone (syrosingopine experiment)", "setting": "[3]; Mito10-HU (5 μM) or syrosingopine (7.5 μM) independently, HCT116", "value": "minimally affected cell proliferation"}]}
{"smiles": "NC(=O)NOCCCC[P+](c1ccccc1)(c1ccccc1)c1ccccc1.O=C([O-])C(F)(F)F", "note": "[Mito4-HU, 4-[(carbamoylamino)oxy]-butyltriphenylphosphonium trifluoroacetate]", "values": [{"measurement": "Cell Confluence (%)", "setting": "[1]; 100 μM", "value": 92.40, "unit": "%"}, {"measurement": "Cell Confluence (%)", "setting": "[1]; 200 μM", "value": 90.77, "unit": "%"}, {"measurement": "Cell Confluence (%)", "setting": "[1]; 400 μM", "value": 80.77, "unit": "%"}, {"measurement": "Cell Confluence (%)", "setting": "[1]; 600 μM", "value": 47.24, "unit": "%"}, {"measurement": "inhibition of proliferation of HCT116 cells", "setting": "[1]; trifluoroacetate", "value": "dose-dependently inhibited proliferation; also recorded: lower than that of HU"}, {"measurement": "IC50", "setting": "[1]; [5]", "value": "> 600", "unit": "µM"}, {"measurement": "IC50", "setting": "[1]; mean ± SD, read-out: IC50 Cell Proliferation (FIG. 1)", "value": "> 600", "unit": "µM"}, {"measurement": "inhibition of proliferation of MiaPaCa-2 cells", "setting": "[4]", "value": "did not inhibit the proliferation"}]}
{"smiles": "CCCCCCCCCCONC(N)=O", "note": "[Decyl-HU, decyloxyurea, reference compound]", "values": [{"measurement": "IC50", "setting": "[1]; [5]", "value": "> 600", "unit": "µM"}]}
